Data: ChEMBL document CHEMBL1201862, “PubChem BioAssay data set” (2004)
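Exposure lasted 48 hours, with cells grown in 96-well plates and compounds tested at five concentrations. GI50 is the concentration that inhibits growth by half.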 Calls of active or inactive are those of the source. Cut-off read from the data, not from the text of the source: active = GI50 up to about 1.1 µM and inactive = higher.

Experiments:
Test in all cases: NCI-60 cell line screen, 48 h
SNB-75 = test system: SNB-75
A549 = test system: A549
HOP-62 = test system: HOP-62
HT-29 = test system: HT-29
NCI/ADR-RES = test system: NCI/ADR-RES
Malme-3M = test system: Malme-3M
NCI-H23 = test system: NCI-H23
UACC-62 = test system: UACC-62
NCI-H522 = test system: NCI-H522
T47D = test system: T47D
SF-295 = test system: SF-295
UO-31 = test system: UO-31
ACHN = test system: ACHN
BT-549 = test system: BT-549
CAKI-1 = test system: CAKI-1
COLO 205 = test system: COLO 205
RXF 393 = test system: RXF 393
MOLT-4 = test system: MOLT-4
OVCAR-3 = test system: OVCAR-3
SNB-19 = test system: SNB-19

| Structure (SMILES) | GI50 (SNB-75) | GI50 (A549) | GI50 (HOP-62) | GI50 (HT-29) | GI50 (NCI/ADR-RES) | GI50 (Malme-3M) | GI50 (NCI-H23) | GI50 (UACC-62) | GI50 (NCI-H522) | GI50 (T47D) | GI50 (SF-295) | GI50 (UO-31) | GI50 (ACHN) | GI50 (BT-549) | GI50 (CAKI-1) | GI50 (COLO 205) | GI50 (RXF 393) | GI50 (MOLT-4) | GI50 (OVCAR-3) | GI50 (SNB-19) |
| --- | --- | --- | --- | --- | --- | --- | --- | --- | --- | --- | --- | --- | --- | --- | --- | --- | --- | --- | --- | --- |
| COC(=O)C1=NN2c3ccccc3C(=O)OCCC2C1 (configuration not stated) | > 100 µM (inactive) | > 100 µM (inactive) | > 100 µM (inactive) | > 100 µM (inactive) | > 100 µM (inactive) | > 100 µM (inactive) | > 100 µM (inactive) | > 100 µM (inactive) | > 100 µM (inactive) | > 100 µM (inactive) | > 100 µM (inactive) | > 100 µM (inactive) | > 100 µM (inactive) | > 100 µM (inactive) | > 100 µM (inactive) | > 100 µM (inactive) | > 100 µM (inactive) | > 100 µM (inactive) | > 100 µM (inactive) | – |
| CC(C)Cn1cnnc1NS(=O)(=O)c1cc(C(=O)NN)c(Cl)cc1S | > 10 µM (inactive) | > 10 µM (inactive) | > 10 µM (inactive) | > 10 µM (inactive) | > 10 µM (inactive) | > 10 µM (inactive) | > 10 µM (inactive) | > 10 µM (inactive) | > 10 µM (inactive) | > 10 µM (inactive) | > 10 µM (inactive) | – | > 10 µM (inactive) | > 10 µM (inactive) | > 10 µM (inactive) | > 10 µM (inactive) | > 10 µM (inactive) | > 10 µM (inactive) | > 10 µM (inactive) | > 10 µM (inactive) |
| O=C(O)c1nc2ccc(Cl)cc2[nH]c1=O | – | > 100 µM (inactive) | > 100 µM (inactive) | > 100 µM (inactive) | > 100 µM (inactive) | > 100 µM (inactive) | > 100 µM (inactive) | > 100 µM (inactive) | > 100 µM (inactive) | > 100 µM (inactive) | > 100 µM (inactive) | 46.8 µM (inactive) | > 100 µM (inactive) | > 100 µM (inactive) | > 100 µM (inactive) | > 100 µM (inactive) | > 100 µM (inactive) | > 100 µM (inactive) | > 100 µM (inactive) | > 100 µM (inactive) |
| NC1CC(Cl)c2c(Cl)sc(Cl)c21 (configuration not stated) | > 100 µM (inactive) | > 100 µM (inactive) | > 100 µM (inactive) | > 100 µM (inactive) | > 100 µM (inactive) | > 100 µM (inactive) | > 100 µM (inactive) | > 100 µM (inactive) | < 0.01 µM (active) | > 100 µM (inactive) | > 100 µM (inactive) | > 100 µM (inactive) | > 100 µM (inactive) | > 100 µM (inactive) | > 100 µM (inactive) | > 100 µM (inactive) | 14.2 µM (inactive) | > 100 µM (inactive) | > 100 µM (inactive) | – |
| CC(C)[Si]1(C(C)C)OCC2OC3(CO)C(Oc4nc(=O)ccn43)C2O[Si](C(C)C)(C(C)C)O1 (configuration not stated) | 15 µM (inactive) | – | 15 µM (inactive) | 12.4 µM (inactive) | 17.4 µM (inactive) | – | 15.5 µM (inactive) | 12.8 µM (inactive) | – | 9.59 µM (inactive) | 15 µM (inactive) | 13.9 µM (inactive) | 15.5 µM (inactive) | 11.6 µM (inactive) | 15.7 µM (inactive) | 9.44 µM (inactive) | 5.57 µM (inactive) | 7.55 µM (inactive) | – | 15.9 µM (inactive) |
| CCOC(=O)Nn1cnnc1C | – | > 100 µM (inactive) | > 100 µM (inactive) | > 100 µM (inactive) | > 100 µM (inactive) | > 100 µM (inactive) | > 100 µM (inactive) | > 100 µM (inactive) | > 100 µM (inactive) | > 100 µM (inactive) | > 100 µM (inactive) | > 100 µM (inactive) | > 100 µM (inactive) | > 100 µM (inactive) | > 100 µM (inactive) | > 100 µM (inactive) | > 100 µM (inactive) | > 100 µM (inactive) | > 100 µM (inactive) | > 100 µM (inactive) |
| CCOC(=O)c1c2ccccc2n2c(=O)n(-c3ccc(OC)cc3)nnc12 | 14.5 µM (inactive) | 46.5 µM (inactive) | 21.1 µM (inactive) | – | 31 µM (inactive) | 30.5 µM (inactive) | 34.4 µM (inactive) | 11.2 µM (inactive) | – | 24.3 µM (inactive) | 20.3 µM (inactive) | 29.4 µM (inactive) | 31.1 µM (inactive) | 26.5 µM (inactive) | > 45.7 µM (inactive) | > 100 µM (inactive) | 19 µM (inactive) | – | 34.4 µM (inactive) | 34.2 µM (inactive) |
| COc1ccc2c(c1)C(=O)OCCC2 | 54 µM (inactive) | > 100 µM (inactive) | > 100 µM (inactive) | > 100 µM (inactive) | > 100 µM (inactive) | – | > 100 µM (inactive) | > 100 µM (inactive) | > 100 µM (inactive) | > 100 µM (inactive) | > 100 µM (inactive) | 26.7 µM (inactive) | > 100 µM (inactive) | > 100 µM (inactive) | > 100 µM (inactive) | > 100 µM (inactive) | > 100 µM (inactive) | > 100 µM (inactive) | > 100 µM (inactive) | > 100 µM (inactive) |
| OC(c1ccc(F)cc1)C(F)(F)c1nc2ccccc2o1 (configuration not stated) | 21.6 µM (inactive) | – | 62.5 µM (inactive) | > 100 µM (inactive) | 51.4 µM (inactive) | – | > 100 µM (inactive) | > 100 µM (inactive) | – | 76 µM (inactive) | > 100 µM (inactive) | > 100 µM (inactive) | > 100 µM (inactive) | > 100 µM (inactive) | 87.5 µM (inactive) | > 100 µM (inactive) | 39.4 µM (inactive) | 46.6 µM (inactive) | – | > 100 µM (inactive) |
| N#CC1C(=S)NC(c2ccccc2)=CC12CCCCC2 (configuration not stated) | 58.7 µM (inactive) | 29.6 µM (inactive) | – | 27.6 µM (inactive) | 28.8 µM (inactive) | 22.2 µM (inactive) | 15.7 µM (inactive) | 20 µM (inactive) | 22.1 µM (inactive) | 10.8 µM (inactive) | – | 25 µM (inactive) | 25.1 µM (inactive) | 15.8 µM (inactive) | 47.3 µM (inactive) | 30.1 µM (inactive) | 87.1 µM (inactive) | 20.7 µM (inactive) | – | 32.5 µM (inactive) |
| O=C(/C=C/c1ccc(C(F)(F)F)cc1)c1c([O-])on[n+]1-c1ccccc1 | 2.07 µM (inactive) | 4.03 µM (inactive) | 3.95 µM (inactive) | 0.889 µM (active) | 1.78 µM (inactive) | > 100 µM (inactive) | 3.13 µM (inactive) | 1.47 µM (inactive) | – | 1.8 µM (inactive) | 3.6 µM (inactive) | 1.91 µM (inactive) | 1.51 µM (inactive) | 1.59 µM (inactive) | 0.288 µM (active) | 1.75 µM (inactive) | 1.27 µM (inactive) | 0.284 µM (active) | 1.58 µM (inactive) | 3.12 µM (inactive) |
| CCOC(=O)c1c(SC)nc(-c2ccc(Cl)cc2)sc1=N.[O-][Cl+3]([O-])([O-])O | 25.1 µM (inactive) | 37.7 µM (inactive) | 30.1 µM (inactive) | 25.8 µM (inactive) | 23.7 µM (inactive) | 20.5 µM (inactive) | 22.6 µM (inactive) | 30.8 µM (inactive) | – | 31.9 µM (inactive) | 28.2 µM (inactive) | 33.8 µM (inactive) | 40.1 µM (inactive) | 30 µM (inactive) | 35.5 µM (inactive) | 21.8 µM (inactive) | 33.9 µM (inactive) | 26.4 µM (inactive) | 33.2 µM (inactive) | 94.4 µM (inactive) |
| c1ccc(NNN2NC(c3ccccc3)C2c2ccccc2)cc1 (configuration not stated) | > 100 µM (inactive) | 60 µM (inactive) | – | > 100 µM (inactive) | 97.3 µM (inactive) | 28.9 µM (inactive) | 92.3 µM (inactive) | > 100 µM (inactive) | 71.9 µM (inactive) | > 100 µM (inactive) | > 100 µM (inactive) | 36.6 µM (inactive) | > 100 µM (inactive) | > 100 µM (inactive) | > 100 µM (inactive) | > 100 µM (inactive) | 24.3 µM (inactive) | 55 µM (inactive) | > 100 µM (inactive) | > 100 µM (inactive) |
| CN(C)CCNc1ccc([N+](=O)[O-])c2sc3ccccc3c(=O)c12 | 4.68 µM (inactive) | 3.83 µM (inactive) | 2.81 µM (inactive) | 2.57 µM (inactive) | 3.44 µM (inactive) | 4.27 µM (inactive) | 4.16 µM (inactive) | 4.61 µM (inactive) | 1.56 µM (inactive) | 13.7 µM (inactive) | 4.24 µM (inactive) | 4.34 µM (inactive) | 2.51 µM (inactive) | 2.1 µM (inactive) | – | 2.86 µM (inactive) | 14.4 µM (inactive) | 0.706 µM (active) | 3.68 µM (inactive) | 5.14 µM (inactive) |
| O=C1CC(c2ccccc2)Oc2ccccc21 (configuration not stated) [FLAVANONE] | 63.4 µM (inactive) | – | 48.4 µM (inactive) | 28 µM (inactive) | 34.9 µM (inactive) | – | 15.9 µM (inactive) | 51.3 µM (inactive) | – | 35.8 µM (inactive) | 58.1 µM (inactive) | 47.6 µM (inactive) | 47.6 µM (inactive) | 15.4 µM (inactive) | 48.3 µM (inactive) | 33.6 µM (inactive) | 36.2 µM (inactive) | 13.7 µM (inactive) | – | 23.1 µM (inactive) |
